Laboratory results as given in patent publication US8389569B2, “Polyspirane compounds, application thereof in the treatment of malaria or toxoplasmosis and method for preparing same” (Universite Joseph Fourier, priority 2007, dated 2013).
Where two headings read alike, the source gives them in different places.

Assays:
[1] = tested on: Plasmodium falciparum 3D7 strain (chloroquine-sensitive); assay: Antimalarial activity in vitro, [3H]-hypoxanthine isotopic microtest; format: cell-based; conditions: asynchronous culture of infected erythrocytes, 48 hours + 18 hours [3H]-hypoxanthine, read-out: Plasmodium Proliferation test 3D7 strain (IC 50)
Method: Before experimentation, parasites of the 3D7 strain (chloroquine-sensitive, […] de Waal H. A. and F. […] ATCC no.: MRA-102) of Plasmodium falciparum are maintained in culture according to the Trager and Jansen method (Trager and Jansen, 1976). The antimalarial activity is measured in vitro on an asynchronous culture of erythrocytes infected with Plasmodium falciparum according to a modified method ([…] et al., 2003) based on the Desjardins isotopic microtest (Desjardins et al., 1979). […] After incubation for 48 hours, 0.5 μCi [^3H]-hypoxanthine (a precursor necessary for the synthesis of the radiolabelled nucleic acids of the parasite) are added to each microtitre plate well. After incubation for 18 hours, the hypoxanthine incorporation reaction is stopped and the cells lysed by direct freezing at -80° C. After thawing, the parasitic macromolecules, including the radiolabelled nucleic acids, are collected on a filter by means of a cell collector. A scintillation cocktail is added to the filter and the incorporated radioactivity is then measured with a scintillation counter. The radioactive background noise is measured starting from non-infected erythrocytes and subtracted from each filter measurement. The viability of the parasites treated with the compound to be tested is measured by their ability to synthesize nucleic acids from a radiolabelled precursor ([H^3]-hypoxanthine) in comparison with the control parasites cultured in the absence of the compound and is expressed as a percentage of the control. The measurements are analyzed by means of the Graphpad Prism software and the IC50 (concentration of compound able to inhibit 50% of the parasites' growth in vitro) is determined graphically. The results obtained appear in the form of IC50 in the table and are the result of two experiments carried out independently (different parasite cultures, different dilutions) in duplicate.

[2] = tested on: Toxoplasma (RH-β1 strain) in HFF (Human Foreskin Fibroblast) cells; assay: Antitoxoplasmic activity in vitro, colorimetric microtitre proliferation test; format: cell-based, Toxoplasma gondii
Method: The test implemented here is a colorimetric microtitre test. A monolayer of HFF (Human Foreskin Fibroblast) cells is infected, in a synchronous manner, by the parasite (10^4 parasites per well, RH-β1 strain). After washing, increasing doses (from 50 nM to 100 μM) of compound are added, except to the control well (addition, or no addition, of DMSO). After incubation for 48 hours, the β-galactosidase activity is measured by the addition of a substrate of the enzyme, chlorophenol red β-D-galactopyranoside (CPRG). The plates are again incubated (from 30 min to 16 h at 37° C.) before being read at 570 and 630 nm.

[3] = tested on: synchronized Plasmodium falciparum parasites (ring, trophozoite, schizont); assay: Minimum contact time necessary for cytotoxicity as a function of the parasitic stage (time-course); format: cell-based; conditions: 20×IC50, contact 30 min to 9 h; for activity on the different blood stages of the parasite (FIG. 11): viability as % of control; for speed and reversibility of the action (FIG. 11): washed, viability read at next cycle
Method: A culture of Plasmodium falciparum parasites is synchronized with VarioMACS (which retains the mature forms, which synthesize a pigment: haemozoin). After the culture has been passed through a VarioMACS column for 6 h, the synchronization range of the parasites is restricted by a second synchronization with 5% sorbitol (which retains only the young, so-called ring stage) at time t0, i.e. a short time after the invasion of healthy erythrocytes by the merozoites originating from the schizonts obtained by synchronization with the VarioMACS. The parasites are then brought into contact during each stage (ring, then trophozoite then schizont) with a fixed concentration of compound (20×IC50 previously defined by the above protocol) and for variable periods of time (30 min, 1 h 30 min, 3 h, 5 h, 7 h and 9 h in the case of parasites treated in the ring stage; 30 min, 1 h 30 min, 3 h, 5 h and 7 h in the case of parasites treated in the trophozoite and schizont stage). At the end of the defined period of contact, the erythrocyte mat is washed twice in complete medium. At t0+44h, (i.e. at the start of the subsequent parasitic life cycle), the erythrocyte mats are resuspended and redistributed into 96-well plates (in sextuplicate), 0.5 μCi of tritiated [^3H]-hypoxanthine is then added to the culture medium. From then on, the treatment is the same as that of the abovementioned experiment with one difference: the results obtained appear in the form of a graph which represents the viability of the parasites expressed as a control percentage as a function of the time for which the culture is in contact with the compound to be tested.

[4] = Plasmodium falciparum, 3D7, Erythrocyte, 66 h
[5] = Toxoplasma, Fibroblast, 48 h, read-out: Toxoplasma Proliferation test (IC 50), HFF monolayer infected with RH-β1 strain, 48 hours incubation, β-galactosidase activity (CPRG)
[6] = HFF monolayer infected with RH-β1 strain, 48 hours incubation, β-galactosidase activity (CPRG), read-out: Toxoplasma Proliferation test (IC 50)

| Compound | IC50 [1, 4] [nM] | IC50 [2, 5] [nM] | IC50 [1] [nM] | also measured |
| --- | --- | --- | --- | --- |
| CCCCCCCCCCOC(=O)C[C@@H]1C[C@@H](O)C[C@]2(CCC3(C=CC(=O)C=C3)O2)O1 (racemic) [10b, decyl (2S,4R,6R)- and (2R,4S,6S)-(4-Hydroxy-11-oxo-1,7-dioxadispiro[5.1.5.2]pentadeca-9,12-dien-2-yl)-acetate] | 654 | 341 |  |  |
| CCCCCCCCCCCCCCCCCCOC(=O)C[C@@H]1C[C@@H](O)C[C@]2(CCC3(C=CC(=O)C=C3)O2)O1 (racemic) [10c, octadecyl (2S,4R,6R)- and (2R,4S,6S)-(4-Hydroxy-11-oxo-1,7-dioxadispiro[5.1.5.2]pentadeca-9,12-dien-2-yl)-acetate] | 770 | 2400 |  |  |
| CCCCCCCCCCCCC[C@@H]1C[C@H](O)C[C@]2(CCC3(C=CC(=O)C=C3)O2)O1 [Natural aculeatin B, aculeatin B, reference compound] |  |  | 454 | IC50 [2, 6]: 365 nM |
| CCCCCCCCCCCCCCCCCCOC(=O)C[C@@H]1C[C@H](O)C[C@@]2(CCC3(C=CC(=O)C=C3)O2)O1 (racemic) [13c, octadecyl (2S,4S,6S)- and (2R,4R,6R)-(4-Hydroxy-11-oxo-1,7-dioxadispiro[5.1.5.2]pentadeca-9,12-dien-2-yl)-acetate] | 1130 | 3520 |  |  |
| CCCCCCC(=O)OC1CC2(CC[C@]3(C=CC(=O)C=C3)O2)O[C@@]2(CC[C@]3(C=CC(=O)C=C3)O2)C1 (mixture of isomers) [16a, (8R,10S,21S)- and (8S,10R,21R)-Heptanoate of 7,9,11-trioxatetraspiro[5.1.1.1.5^12.2^10.3^8.2^6]tetracosa-1,4,13,16-dien-3,15-on-21-yl] | 343 |  |  |  |
| CCCOC(=O)C[C@@H]1C[C@@H](O)C[C@]2(CCC3(C=CC(=O)C=C3)O2)O1 (mixture of isomers) [10a, propyl (2S,4R,6R)- and (2R,4S,6S)-(4-Hydroxy-1′-oxo-1,7-dioxadispiro[5.1.5.2]pentadeca-9,12-dien-2-yl)-acetate] |  |  | 1840 | IC50 [2, 6]: 500 nM |
| 6-epi-aculeatin D [reference compound] |  |  | 451 | IC50 [2, 6]: 377 nM |
| O=C1C=CC2(C=C1)CC[C@]1(CC(O)C[C@@]3(CCC4(C=CC(=O)C=C4)O3)O1)O2 (stereo partly drawn) [4a, (8R,10S,21S)- and (8S,10R,21R)-21-Hydroxy-7,9,11-trioxatetraspiro[5.1.1.1.5^12.2^10.3^8.2^6]tetracosa-1,4,13,16-dien-3,15-one] |  |  | 414 | IC50 [2, 6]: 173 nM |
| CCCCCCCCCCCCC[C@@H]1C[C@@H](O)C[C@]2(CCC3(C=CC(=O)C=C3)O2)O1 [Natural aculeatin A, aculeatin A, reference compound] |  |  | 288 | IC50 [2, 6]: 309 nM |
| CCCCCCCCCCCCCC(=O)CC(=O)OC1C[C@]2(CCC3(C=CC(=O)C=C3)O2)O[C@]2(CCC3(C=CC(=O)C=C3)O2)C1 (stereo partly drawn) [16e, (8R,10S,21S)- and (8S,10R,21R)-3-Oxohexadecanoate of 7,9,11-trioxatetraspiro[5.1.1.1.5^12.2^10.3^8.2^6]tetracosa-1,4,13,16-dien-3,15-on-21-yl] |  |  | 122 |  |
| CCCCCCN(CCCCCC)C(=O)C[C@@H]1C[C@@H](O)C[C@]2(CCC3(C=CC(=O)C=C3)O2)O1 (racemic) [10e, (2S,4R,6R)- and (2R,4S,6S)—N,N-dihexyl-2-(4-hydroxy-11-oxo-1,7-dioxadispiro[5.1.5.2]pentadeca-9,12-dien-2-yl)-acetamide] | 899 |  |  |  |
| CCCCCCCCCCCCCC(=O)OC1CC2(CC[C@]3(C=CC(=O)C=C3)O2)O[C@@]2(CC[C@]3(C=CC(=O)C=C3)O2)C1 (mixture of isomers) [16c, (8R,10S,21S)- and (8S,10R,21R)-Tetradecanoate of 7,9,11-trioxatetraspiro[5.1.1.1.5^12.2^10.3^8.2^6]tetracosa-1,4,13,16-dien-3,15-on-21-yl] | 81.5 | 346 |  | activity on the different blood stages of the parasite (FIG. 11) [3]: active on the different blood stages (rings, trophozoites and schizonts); speed and reversibility of the action (FIG. 11) [3]: extremely rapid and is not reversible |
| CCCCCCCCCCOC(=O)CC1CC(O)C[C@@]2(CCC3(C=CC(=O)C=C3)O2)O1 (mixture of isomers) [11b, (2S,4R,6S)- and decyl (2R,4S,6R)-(4-Hydroxy-11-oxo-1,7-dioxadispiro[5.1.5.2]pentadeca-9,12-dien-2-yl)-acetate] | 1360 | 1640 |  |  |
| CCCCCCCCCCCCCCCCCCOC(=O)C[C@@H]1C[C@H](O)C[C@]2(CCC3(C=CC(=O)C=C3)O2)O1 (racemic) [12c, octadecyl (2S,4S,6R)- and (2R,4R,6S)-(4-Hydroxy-11-oxo-1,7-dioxadispiro[5.1.5.2]pentadeca-9,12-dien-2-yl)-acetate] | 1030 | 3540 |  |  |
| CCCCCCC(=O)OC1CC2(CC[C@]3(C=CC(=O)C=C3)O2)O[C@@]2(CC[C@]3(C=CC(=O)C=C3)O2)C1 (stereo partly drawn) [16b, (8R,10R,21S)-Heptanoate of 7,9,11-trioxatetraspiro[5.1.1.1.5^12.2^10.3^8.2^6]tetracosa-1,4,13,16-dien-3,15-on-21-yl] |  |  | 331 |  |
| O=C1C=C[C@]2(C=C1)CCC1(CC(O)C[C@]3(CC[C@@]4(C=CC(=O)C=C4)O3)O1)O2 (stereo partly drawn) [4b, (8R,10R,21S)-21-Hydroxy-7,9,11-trioxatetraspiro[5.1.1.1.5^12.2^10.3^8.2^6]tetracosa-1,4,13,16-dien-3,15-one] | 584 | 1500 |  |  |
| CCCCCCCCCCCCCC(=O)OC1CC2(CC[C@]3(C=CC(=O)C=C3)O2)O[C@@]2(CC[C@]3(C=CC(=O)C=C3)O2)C1 (stereo partly drawn) [16d, (8R,10R,21S)-Tetradecanoate of 7,9,11-trioxatetraspiro[5.1.1.1.5^12.2^10.3^8.2^6]tetracosa-1,4,13,16-dien-3,15-on-21-yl] |  |  | 91.7 | activity on the different blood stages of the parasite (FIG. 11) [3]: active on the different blood stages (rings, trophozoites and schizonts); speed and reversibility of the action (FIG. 11) [3]: extremely rapid and is not reversible; IC50 ([2]; read-out: Toxoplasma Proliferation test (IC 50), HFF monolayer infected with RH-β1 strain, 48 hours incubation, β-galactosidase activity (CPRG)): 636 nM |
